# Results taken from PMC8220083 (Frontiers in Pharmacology, 2021).
# Where “and” joins values, the source holds several entries; their conditions need not be identical. Equal values may be shown once. Read-outs that look alike come from different tables or passages of the source.
# Tests used:
# U937 Clone 10 cells = assay: Receptor polarization and endocytosis of SHIV; type: cell-based, human; conditions: for SHIV localization: cells preconditioned 15 min 37°C
# Description: Receptor Polarization and Endocytosis. To Eppendorf tubes that been precoated with RPMI-1640 containing 10% fetal bovine serum to prevent attachment, were added 250 μl containing 5 × 10^5 U937 Clone 10 cells.
# U937 Clone 10 cells were pulsed with SHIV particles (30 ng p27 or p24 per 10^6 cells) for 2 h at 2°C, a circumstance that allows binding, but prevents endocytosis. Alternatively, cells were pulsed with virus for 2 h at 37°C, a circumstance that allows binding and endocytosis ([Bristow et al., 2012]). Following pulsing for 2 h, cells were pelleted, resuspended in AIM-V and allowed to adhere to Alcian blue coated microscope slides for 8 min at 4°C, washed, and fixed using 4% paraformaldehyde as previously described ([Frank et al., 2002]). The presence of AT-2 virus in test cells was detected using dodecameric human CD4-IgG1 provided by the Laboratory of Immunoregulation, NIAID, NIH. This reagent specifically recognizes conformationally intact HIV/SIV envelope gp120. CD4-IgG1 was detected using rabbit anti-human IgG conjugated with horse radish peroxidase (SigmaAldrich). CD4-IgG-labeled cells were coupled to Oregon 488 fluorochrome using the tyramide signal amplification system (Life Science Products, Boston, MA, United States). In some cases, cells stained on slides were permeabilized using 0.05% saponin during the blocking step and further stained with the nuclear staining dye, 4′,6-diamidino-2-phenylindole (DAPI), mounted, and examined by epifluorescence microscopy using a Zeiss Axioplan to detect positive and negative reactions. Representative samples of positive and negative reactions were subsequently captured by confocal microscopy using a Perkin Elmer Operetta High Content Imaging System. Cells were analyzed by confocal microscopy using 2 μm scanning from the attached surface toward the unattached surface.
# E. coli DH5-Alpha = assay: Kirby-Bauer Disk Test of antibiotic activity; type: cell-based; conditions: for diameter of zone of inhibition: 16 h at 37°C; for inhibitory dose: disk test
# Description: Antibiotic activity. […] D-Ampicillin-sensitive E. coli DH5-Alpha was cultured overnight in LB broth, and the cell concentration was calibrated using McFarland Turbidity Standard […] for <300 × 10^6 CFU. At this concentration of cells, bacteria were spread on Mueller-Hinton agar plates. […] After incubation for 16 h at 37°C, plates were examined for zones of inhibition.
# [1] = Diet-induced obesity (DIO) mouse model, lipoprotein levels; type: in vivo, C57BL/6J mice; conditions: 60% fat diet, daily oral gavage
# Description: Animal Studies. Animal studies were performed by Jackson Laboratory (Bar Harbor, ME), an OLAW-Assured and AAALAC accredited institution. All research was reviewed and approved by the Institutional Animal Care and Use Committee (IACUC) prior to commencing. The study used 16–17 weeks old male DIO C57BL/6J mice that had been maintained on a 10% (control) or 60% high-fat diet. […] Treatment was delivered by daily oral gavage at the same time of day for 12 weeks. Blood was collected by retro-orbital bleed every 3 weeks for measurement of total cholesterol, LDL, HDL, triglycerides, […] free fatty acids and glucose using the Beckman Coulter AU680 Chemistry System.
# Food consumption was monitored twice weekly, and body weight was monitored weekly. As mice gained weight on the 60% high-fat diet during the study, dosing was adjusted accordingly. Mice were monitored for adverse effects (e.g., labored breathing, aberrant weight change). Three mice were lost during the study. […] The mice lost in the ezetimibe group were due to a severe bite wound and an unknown causes. The mouse lost in the Alphataxin group was due to an abnormal amount of gas in the stomach attributed to a gavaging error.
# [2] = molecular target: T1, cell surface human leukocyte elastase (HLE-CS) on U937 Clone 10 cells (Homo sapiens, UniProt P08246); assay: Cellular adherence to glass (HLE-CS interaction); type: cell-based; conditions: 2,000 U937 cells per well; for HLE-CS Adherent cells: at optimal concentration; for HLE-CS Optimal concentration: optimal adherence concentration
# T1 construct: endogenous in cells; host or cells: human U937 Clone 10 cells
# T1 sequence (P08246 30-267): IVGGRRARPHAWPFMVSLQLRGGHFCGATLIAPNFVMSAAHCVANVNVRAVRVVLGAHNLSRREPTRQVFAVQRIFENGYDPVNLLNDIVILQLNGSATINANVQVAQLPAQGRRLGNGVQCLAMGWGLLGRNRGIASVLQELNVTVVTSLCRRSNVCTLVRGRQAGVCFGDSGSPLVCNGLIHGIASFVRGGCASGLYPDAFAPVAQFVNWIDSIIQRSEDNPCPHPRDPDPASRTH
# Text: Cellular adherence. […] […] Unattached cells were removed by washing using AIM-V, and attached cells were fixed by application of 4% paraformaldehyde. Attached cells were counted by light microscopy.
# [3] = molecular target: T2, Human leukocyte elastase (HLE-G) (Homo sapiens, UniProt P08246); assay: Inhibition of HLE-G enzymatic activity; type: biochemical; conditions: for IC50: compound vs. HLE-G (75 µM), 10 min at 37°C, 5 min with substrate; for HLE-G Molar excess: molar excess of compound to HLE-G at IC50
# T2 construct: purchased Athens Research & Technology 16-14-051200
# T2 sequence (P08246 30-267): T1 sequence (P08246 30-267)
# Description: Inhibition of HLE-G enzymatic activity. Two-fold serial dilutions of HLE-G in 100 µl Tris-buffered saline (pH 7.8) were added to rows of wells of a microtiter plate as previously described ([Bristow et al., 1991]). […] The microtiter plate was incubated for 10 min at 37°C. The HLE-G substrate (Succinyl-L-Ala-L-Ala-L-Ala-p-nitroanilide, Sigma) was added to all wells, and absorbance at 405 nm was detected kinetically at 23°C using an MRX plate reader.
# [4] = type: in vivo, human; conditions: HIV-1-infected, 8 weekly infusions 120 mg/kg
# Description: Clinical trial NCT01731691: This clinical trial was a double-blind, randomized study as previously described ([Bristow et al., 2019]). Written informed consent was received from 12 individuals, 8 HIV-1-infected individuals and 4 uninfected controls. Blood was collected weekly at the same time of day at baseline and for 8 subsequent weeks from uninfected, untreated controls and from HIV-1-infected individuals who were treated weekly with Prolastin-C (n = 3) or with placebo (n = 5). […] Inclusion criteria HIV-1 uninfected, untreated controls were the same as for HIV-1 infected subjects excluding HIV-related criteria. Grifols Biotherapeutics contributed a sufficient quantity of Prolastin-C (lot# 26NLK52) for administration of 8 weekly infusions at a dose of 120 mg/kg. The study protocol was approved by Copernicus Group Independent Institutional Review Board, Durham, NC. Drug delivery and blood collection were performed at ACRIA, New York, NY.
# Human apolipoproteins measurement. Total cholesterol, high density lipoprotein (HDL), low density lipoprotein (LDL), triglycerides, apolipoprotein E (apoE), and apolipoprotein A1 (apoA1) measurements were performed by ICON Central Laboratory, Farmingdale, NY. Cholesterol, HDL, and triglycerides were measured using the Chol2, HDLC3, TRIGL methods on the Roche/Hitachi cobas c analyzer. LDL was calculated using the formula total cholesterol – HDL – (triglycerides/5). ApoE was quantitated using the Kamiya Biomedical Co. K-assay immunoturbidimetric method. ApoA1 was quantitated using the Siemens N antisera method by immunonephelometry on the BN II and BN ProSpec System. Total apoB and apoB48 measurements were contracted by ICON Central Laboratory to Nexelis (formerly Pacific Biomarkers). Total apoB was measured in serum by immunoturbidimetry using the Roche Modular P instrument and Goat polyclonal antibody specific for human apoB. ApoB48 wase measured by sandwich ELISA using a capture monoclonal antibody and detection using a biotin-conjugated polyclonal antibody followed by HRP-conjugated Streptavidin and addition of a chromogenic substrate using a SoftMax Pro ELISA plate reader. ApoB100 was calculated as total apoB minus apoB48. Cholesterol, triglycerides, HDL, LDL, apoE and apoA1 were measured by ICON Central Laboratory, Farmingdale, NY.
Compound,HLE-CS Adherent cells [2],HLE-CS Optimal concentration [2],IC50 [3],HLE-G Molar excess [3],further results
CC1(C)S[C@@H]2[C@H](NC(=O)[C@@H](N)c3ccccc3)C(=O)N2[C@H]1C(=O)O [Alphataxin],,,,,"cellular locomotion and endocytosis (U937 Clone 10 cells): mimics α1PI activity by binding to HLE-CS and inducing cellular locomotion and endocytosis; SHIV localization (U937 Clone 10 cells; SHIV 2 h at 2°C): SHIV detected only on the exterior plasma membrane of polarized cells, never internalized into the cells; SHIV localization (U937 Clone 10 cells; SHIV 2 h at 37°C): SHIV was detected internal to the cells; antibiotic effectiveness against E. coli (E. coli DH5-Alpha): not an effective antibiotic against E. coli; diameter of zone of inhibition (E. coli DH5-Alpha; 0.05 mM): 1.5 cm; diameter of zone of inhibition (E. coli DH5-Alpha; 0.5 mM): 2.8 cm; diameter of zone of inhibition (E. coli DH5-Alpha; 5 mM (Figure 2 legend)): 1.5 cm; diameter of zone of inhibition (E. coli DH5-Alpha; 50 mM (Figure 2 legend)): 2.8 cm; inhibitory dose (E. coli DH5-Alpha): ≥ 0.05 mM and ≥ 17.5 μg/ml; MIC (E. coli DH5-Alpha; extrapolated from 10-fold greater minimum inhibitory dose than D-ampicillin): ≥ 80 µg/mL; LDL levels ([1]; after 3 weeks, vs vehicle control, ezetimibe 10 mg/kg, Alphataxin 5 mg/kg): significantly decreased; LDL lowering compared with ezetimibe ([1]; p = 0.90): equivalent to ezetimibe; triglyceride levels ([1]; vs vehicle control, weeks 3, 6, 8): significantly lowered"
CC1(C)S[C@@H]2[C@H](NC(=O)[C@H](N)c3ccc(O)cc3)C(=O)N2[C@H]1C(=O)O [Amoxicillin],54 ± 20,1 nM,,,
C[C@H]1[C@H](NC(=O)/C(=N\OC(C)(C)C(=O)O)c2csc(N)n2)C(=O)N1S(=O)(=O)O [Aztreonam],33 ± 4,1 nM,234 µM,3.1,
CC1(C)S[C@@H]2[C@H](NC(=O)[C@H](N)c3ccccc3)C(=O)N2[C@H]1C(=O)O [D-Ampicillin],,,,,diameter of zone of inhibition (E. coli DH5-Alpha; 0.005 mM): 1.4 cm; diameter of zone of inhibition (E. coli DH5-Alpha; 0.5 mM): 3.8 cm; diameter of zone of inhibition (E. coli DH5-Alpha; 5 mM (Figure 2 legend)): 3.0 cm; diameter of zone of inhibition (E. coli DH5-Alpha; 50 mM (Figure 2 legend)): 3.8 cm; inhibitory dose (E. coli DH5-Alpha): ≥ 0.005 mM and ≥ 1.75 μg/ml
C[C@@H](O)[C@H]1C(=O)N2C(C(=O)O)=C(S[C@@H]3CN[C@H](CNS(N)(=O)=O)C3)[C@H](C)[C@H]12 [Doripenem],52 ± 6,100 nM,178 µM,2.4,
"CC1(C)S[C@@H]2[C@H](NC(=O)COc3ccccc3)C(=O)N2[C@H]1C(=O)O [Pen V, Penicillin V]",30 ± 4,10 nM,262 µM,3.5,
"Prolastin-C: sterile plasma-purified α1PI preparation from Grifols, lot# 26NLK52, infused weekly at 120 mg/kg",,,,,HDL levels [4]: decreased from above normal to below normal levels; apoA1 levels [4]: decreased from above normal to below normal levels; apoB48 levels [4]: decreased from above normal to below normal levels; apoB100 levels [4]: did not significantly decrease; apoE levels [4]: decreased from above normal to normal levels; total cholesterol levels [4]: decreased from above normal to normal levels; triglycerides levels [4]: decreased from above normal to normal levels; LDL levels ([4]; vs placebo arm): significantly lower than in the placebo arm

# Second part, led by results:
HLE-CS Adherent cells [2],HLE-CS Optimal concentration [2],IC50 [3],HLE-G Molar excess [3],Compound,further results
34 ± 8,1 nM,167 µM,2.2,"CO/N=C(\C(=O)N[C@@H]1C(=O)N2C(C(=O)O)=C(COC(N)=O)CS[C@H]12)c1ccco1 [Cefuroxine, Cefuroxime]",
27 ± 10,,,,CC1=C(C(=O)O)N2C(=O)[C@@H](NC(=O)[C@H](N)c3ccccc3)[C@H]2SC1 [Cephalexin],
26 ± 9,1 nM,232 µM,3.1,Cc1onc(-c2c(Cl)cccc2Cl)c1C(=O)N[C@@H]1C(=O)N2[C@@H]1SC(C)(C)[C@@H]2C(=O)O [Dicloxacillin],
23 ± 4,10 nM,203 µM,2.7,C[C@@H](O)[C@H]1C(=O)N2C(C(=O)O)=C([C@H]3CCCO3)S[C@H]12 [Faropenem],
